# Measurements published in patent publication US8309586B2, “Glucokinase activators and pharmaceutical compositions containing the same as an active ingredient” (LG Life Sciences Ltd., priority 2007, dated 2012).
# Tests used:
# [1] = tested on: Glucokinase known as hexokinase IV (human GK isoform 1, pancreas form and human GK isoform 2, liver form); assay: Glucokinase enzymatic activity assay (G6PDH-coupled, NADH absorbance at 340 nm); type: biochemical; conditions: 5 mM glucose, 1 mM ATP, 37 nM GK, 10 min at room temperature
# In short: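 His-tagged human GK isoform 1 (pancreas) or 2 (liver), E. coli-expressed and Ni-purified, 37 nM, with 5 mM glucose, 1 mM ATP, 1 mM NAD and G6PDH in 25 mM Hepes/KCl, 2 mM MgCl2, 1 mM DTT. Ran 10 min at room temperature, read as NADH at 340 nm. AC1.5 is the compound concentration giving 1.5-fold activity.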
# male C57BL/6 mice = assay: Blood glucose lowering abilities after single oral administration in male C57BL/6 mouse; type: in vivo; conditions: 30 mg/kg single oral dose, fed ad libitum
# Experimental: The glucokinase activators according to the present invention were orally administered in a single dose in the amount of 30 mg/kg body weight to male C57BL/6 mice for 24 h. The media were selected depending on their solubilities from distilled water, pH 1.2 HCl buffer solution, 0.5% methyl cellulose distilled water solution, 10% Gelucire/pH 1.2 HCl buffer solution (1/1). The glucokinase activators were dissolved in the selected media to the medium volume of 0.1 ml/10 g body weight on the basis of the body weight measured on the day of experiment.
# Blood glucose was measured by cutting the tail vein before 1 h (time=−1) from the measurement of blood glucose, collecting blood from the tail vein at immediately before the administration of the glucokinase activator (time=0), and at 1, 2, 4, 8, 12, 24 h after administration, loading on the automatic glucometer (Accu-Chek® Active, Roche, USA), dropping 5 μl of the blood to a yellow pad of the Accu-Chek® Active glucose strip, and recording the measured value.
# Mice involved in the experiment were divided into groups (n=10, in the case of media group n=4) on one day before the experiment so that each group has uniform average and standard deviation for blood glucose after 4 hour fasting. Mice were fed ad libitum.
# The blood glucose lowering abilities in % of the representative compounds with respect to the 100% of media control were shown in the following Table 2.
AC1.5 (the compound concentration at which the enzymatic activity is increased by 1.5 times) [1] [nM],SMILES,Hypoglycemic ability (% medium): blood glucose AUC for 24 h with respect to 100% of media control (male C57BL/6 mice; medium: distilled water) [%],Hypoglycemic ability (% medium): blood glucose AUC for 24 h with respect to 100% of media control (male C57BL/6 mice; medium: 0.5% methyl cellulose distilled water solution) [%]
25,"O=C(O)CC[C@@H]1CSC(c2cc3cccc(NC4CCCC4)c3[nH]2)=N1 [Example 164, 3-[(R)-2-(7-cyclopentylamino-1H-indol-2-yl)-4,5-dihydro-thiazol-4-yl]-propionic acid]",73,–
4,"O=C(O)C[C@@H]1CSC(c2cc3cc(Cl)cc(NC4CCCC4)c3[nH]2)=N1 [Example 27, [(R)-2-(5-chloro-7-cyclopentylamino-1H-indol-2-yl)-4,5-dihydro-thiazol-4-yl]acetic acid]",75,–
16,"Cc1cc(NC2CCCC2)c2[nH]c(C3=N[C@H](CCC(=O)O)CS3)cc2c1 [Example 158, 3-[(R)-2-(7-cyclopentylamino-5-methyl-1H-indol-2-yl)-4,5-dihydro-thiazol-4-yl]-propionic acid]",66,–
28,"CCOc1cc(NC2CCCC2)c2[nH]c(C3=N[C@H](CCC(=O)O)CS3)cc2c1 [Example 167, 3-[(R)-2-(7-cyclopentylamino-5-ethoxy-1H-indol-2-yl)-4,5-dihydro-thiazol-4-yl]-propionic acid]",64,–
17,"O=C(O)CC[C@@H]1CSC(c2cc3cc(Oc4ccccc4)cc(NC4CCCC4)c3[nH]2)=N1 [Example 159, 3-[(R)-2-(7-cyclopentylamino-5-phenoxy-1H-indol-2-yl)-4,5-dihydro-thiazol-4-yl]-propionic acid]",63,–
18,"CCOC(=O)C[C@@H]1CSC(c2cc3cc(F)cc(NC4CCCC4)c3[nH]2)=N1 [Example 38, [(R)-2-(7-cyclopentylamino-5-fluoro-1H-indol-2-yl)-4,5-dihydro-thiazol-4-yl]acetic acid ethyl ester]",–,71
5,"O=C(CO)N1CCN(CC[C@@H]2CSC(c3cc4cc(Cl)cc(NC5CCCC5)c4[nH]3)=N2)CC1 [Example 99, 1-(4-{2-[(R)-2-(5-chloro-7-cyclopentylamino-1H-indol-2-yl)-4,5-dihydro-thiazol-4-yl]-ethyl}-piperazin-1-yl)-2-hydroxy-ethanone]",72,–
